“Also recorded” adds a separate entry of the source.
Experiments:
Tn5 transposase = molecular target: T1, Tn5 transposase (Escherichia coli, UniProt Q46731, E54K/L372P/M56A); format: binding
T1 construct: made in house
Protocol: For FP analysis, 60 μL reactions were analyzed using the FP protocol on a Wallac Victor V plate reader and a 7% native polyacrylamide gel was used in gel shift assays. For compound screening and subsequent analysis, 1 μL of either DMSO or test compound (final concentration 80 KIM) was added to the synapsis reactions. Compound screening was carried out using a Beckman Coulter Biomek FX in a 384 well format. Compounds identified as hits were rescreened using gel shift assays under synapsis conditions with a 120 μM compound concentration. IC50 values were obtained by fitting inhibitor titration data (0, 0.01, 0.05, 0.1, 0.5, 2.5, 10, 20, 35, 50, 100, 200, 400, 800 μM) to an exponential decay.

[1] = test system: restriction enzyme BsmA I; experiment: Inhibition of the restriction enzyme BsmA I (compound specificity); format: biochemical; conditions: 120 μM compound
Protocol: Inhibition of the restriction enzyme BsmA I was analyzed to determine compound specificity. Reactions were carried out in 2×NEB Buffer 3 with 160 nM dsDNA, 10 units of BsmA I (New England Biolabs), and 120 μM lead compound. Reactions were incubated at 55° C. for one hour followed by a 20 minute 80° C. heat inactivation step prior to gel electrophoresis. Samples were loaded onto a 9% native polyacrylamide gel and run at 300V for 2.5 hours. Gels were subsequently imaged and quantitated as described for the synapsis assays.

HIV-1 = test system: HIV-1
Protocol: HIV-1 transduction assay and inhibitory screen: 10,000 Ghost-R5 cells per well were plated in a 384 well plate in 49 μL media. 18 hours after plating, 1 μL of inhibitory compound, dissolved in DMSO, was added and gently mixed into solution. Following a 1 hour 37° C. incubation, HIV-1 virions were added in a final infectious volume of 100 μL. 44-48 hours after infection, 87 μL of media was removed from each well, and 13 μL/well of Bright-Glo luciferase detection reagent (Promega) was added. After a 2 minute incubation, the plates were read on a multiwell plate luminometer.
In parallel, cells infected with virus and compound were assayed for luciferase expression by the addition of […] of Bright-Glo reagent, as described above. In this way, effect of the inhibitory compounds on luciferase expression brought about by successful transduction was measured in the constant presence of the compounds.

[2] = test system: HIV reverse transcription; experiment: Quantitative real-time PCR of reverse transcripts in acutely infected cells; format: cell-based, HIV-1; conditions: 75 μM inhibitor, QPCR
Protocol: Quantitative real-time PCR of reverse transcripts, detection of transduction in newly infected cells, and effect of compounds on established provirus expression in stably infected cells: 10,000 Ghost-R5 cells were plated in 96 well dishes, treated with compound in a total volume of 75 μL, and incubated at 37° C. for 1 hour. Virus was then added in an additional volume of 25 μL. The final infectious volume was 100 μL, the final DMSO concentration was 1%, and the final compound concentration was as indicated. DNA was harvested using the DNeasy kit (Qiagen) 24 hours after infection in the constant presence of inhibitory compounds. Late DNA products of HIV reverse transcription were quantitated using the primers MH531 and MH532, and the probe LTR-P, as described in Burke, T. R. et al., J Med Chem 38:4171-8, 1995, herein incorporated by reference in its entirety.

[3] = test system: luciferase expression from proviral DNA; experiment: Established provirus luciferase expression in stably infected Ghost-R5 cells; format: cell-based, HIV-1; conditions: 75 μM inhibitor, chronically infected cells
Protocol: To assess the potential effects of the inhibitory compounds on post-integration events such as transcription, translation, and luciferase enzyme stability and activity, Ghost-R5 cells stably infected several weeks earlier with the same virus preparation were incubated with inhibitory compound in 96 well dishes and luciferase activity was monitored 48 hours later by the addition of 100 μL of Bright-Glo reagent to each well, as described above.

HIV-1 integrase = HIV-1 integrase (Human immunodeficiency virus type 1 group M subtype B, UniProt P04585); experiment: HIV-1 integrase assay (3' strand processing, PAGE); format: biochemical; design: made in house
Protocol: HIV-1 integrase assay: HIV-1 integrase activity was measured as described in Daniel, R. et al., AIDS Res Hum Retroviruses 20:135-44, 2004 (incorporated by reference in its entirety), except that 1.0 μL of either DMSO or inhibitor were added to the reactions. Briefly, HIV-1 integrase (1 μM, final concentration) was pre-incubated with various concentrations of inhibitor at 30° C. for 30 min. A 21-base pair ^32P labeled substrate (1×10^6 dpm), representing the U5 end of the viral genome, and MnCl2 (10 mM, final concentration) were subsequently added to the reaction. The reaction proceeded for 15 min. at 37° C. The reactions were subsequently quenched using EDTA (10 mM, final concentration), and the products separated on a 20% denaturing polyacrylamide gel.

Ghost-R5 cells = experiment: Cytotoxicity assay (Cell Titer Glo); format: cell-based
Protocol: Cytotoxicity assay: Cytotoxicity assays were performed exactly as the infection assay described above, except media without virus was added following compound addition, and Cell Titer Glo (Promega) viability reagent was added in place of Bright Glo.

O=C(/C=C/c1ccccc1)C1=C(O)C(=O)N(c2cccc(C(F)(F)F)c2)C1c1ccc([N+](=O)[O-])cc1 (stereo not shown) [compound 10-F]
inhibition of transposase assembly (in words) (Tn5 transposase): inhibit
inhibition of BsmA I activity [1]: partially inhibits
inhibition of HIV-1 infection in cells (in words) (HIV-1): inhibit
effect on reverse transcription (viral DNA synthesis) [2]: either uninhibited, or only inhibited to a small extent; also recorded: no significant inhibitory effect
effect on luciferase expression from proviral DNA [3]: no significant inhibitory effect
inhibition of integrase in vitro (in words) (HIV-1 integrase): inhibit

O=C(/C=C/c1ccccc1)C1=C(O)C(=O)N(c2ccccc2)C1c1cccc([N+](=O)[O-])c1 (stereo not shown) [compound 10]
inhibition of transposase assembly (in words) (Tn5 transposase): inhibit
inhibition of HIV-1 infection in cells (in words) (HIV-1): inhibit
effect on gross cell viability (Ghost-R5 cells; 75 μM inhibitor): no significant inhibitory effect
LD50 relative to ED50 (Ghost-R5 cells; Ghost-R5 cells, cytotoxicity vs transduction): at least 2 fold
effect on reverse transcription (viral DNA synthesis) [2]: either uninhibited, or only inhibited to a small extent; also recorded: no significant inhibitory effect
effect on luciferase expression from proviral DNA [3]: no significant inhibitory effect
inhibition of integrase in vitro (in words) (HIV-1 integrase): inhibit

From US20090098548A1, “MODULATORS OF ENZYMATIC NUCLEIC ACID ELEMENTS MOBILIZATION” (priority 2004, published 2009)
